Measured values as given in PubChem BioAssay AID330 (DTP/NCI, 2004).
Values joined by “and” are separate entries in the source; they are usually repeats but may differ in a detail not shown here. Equal entries are not always repeated. Inconclusive results and toxic doses are left out. The calls were made as follows: active = survival T/C of 150% or more; inactive = T/C below 125% in these data.

System: P388 leukemia ip, CD2F1 mice, survival T/C
Test: NCI In Vivo Anticancer Drug Screen. Data for tumor model P388 Leukemia (intraperitoneal) in CD2F1 (CDF1) mice
Details: endpoint: median survival time, higher = longer survival
Outline: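 Mice carrying the transplanted tumor received test compound or vehicle. Survival was recorded in each group, and the value is the treated-group measurement divided by that of the vehicle-treated control group.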

[1] = dose: 60.0 mg/kg/injection, schedule: Q01DX005 (ip), vehicle: saline with Tween-80
[2] = dose: 120.0 mg/kg/injection, schedule: Q01DX005 (ip), vehicle: saline with Tween-80
[3] = dose: 240.0 mg/kg/injection, schedule: Q01DX005 (ip), vehicle: saline with Tween-80
[4] = dose: 100.0 mg/kg/injection, schedule: Q04DX003 (ip), vehicle: saline with Tween-80
[5] = dose: 200.0 mg/kg/injection, schedule: Q04DX003 (ip), vehicle: saline with Tween-80
[6] = dose: 400.0 mg/kg/injection, schedule: Q04DX003 (ip), vehicle: saline with Tween-80
[7] = dose: 100.0 mg/kg/injection, schedule: Q04DX003 (ip), vehicle: saline
[8] = dose: 50.0 mg/kg/injection, schedule: Q01DX005 (ip), vehicle: saline with Tween-80
[9] = dose: 100.0 mg/kg/injection, schedule: Q01DX005 (ip), vehicle: saline with Tween-80
[10] = dose: 200.0 mg/kg/injection, schedule: Q01DX005 (ip), vehicle: saline with Tween-80
[11] = dose: 100.0 mg/kg/injection, schedule: Q04DX002 (ip), vehicle: saline with Tween-80
[12] = dose: 100.0 mg/kg/injection, schedule: Q01DX009 (ip), vehicle: saline with Tween-80
[13] = dose: 200.0 mg/kg/injection, schedule: Q01DX009 (ip), vehicle: saline with Tween-80
[14] = dose: 50.0 mg/kg/injection, schedule: Q01DX009 (ip), vehicle: saline with Tween-80

Measured: T/C

O=C(N=C1C(=O)C2(CCCCC2)C2(N=C(c3ccccc3)OC2=O)C12CCCCC2)c1ccccc1 (stereo not drawn)
inactive: [1] 107 % of control | [2] 100 % of control | [3] 100 % of control

Cc1ccc(CNc2cccnc2)cc1
inactive: [4] 104 % of control | [5] 95 % of control | [6] 90 % of control

CCN(CC)CCNC(=O)c1nn(-c2ccccc2)c2c1CCc1ccccc1-2
inactive: dose: 25.0 mg/kg/injection, schedule: Q04DX003 (ip), vehicle: saline 100 % of control | dose: 50.0 mg/kg/injection, schedule: Q04DX003 (ip), vehicle: saline 101 % of control | [7] 102 % of control and 107 % of control

CC1CN(Cc2ccccc2)CCC1N1CCCC1 (stereo not drawn)
inactive: [8] 111 % of control | [9] 107 % of control | [10] 109 % of control

Cc1cc(C)n(C(=N)/C(C#N)=N/N(C)c2ccccc2)n1
inactive: dose: 25.0 mg/kg/injection, schedule: Q04DX002 (ip), vehicle: saline with Tween-80 100 % of control | dose: 50.0 mg/kg/injection, schedule: Q04DX002 (ip), vehicle: saline with Tween-80 93 % of control | [11] 90 % of control

COC(=O)CC(OC)OC
inactive: [12] 100 % of control | [7] 91 % of control | [13] 113 % of control | dose: 200.0 mg/kg/injection, schedule: Q04DX003 (ip), vehicle: saline 91 % of control | dose: 400.0 mg/kg/injection, schedule: Q01DX009 (ip), vehicle: saline with Tween-80 113 % of control | dose: 400.0 mg/kg/injection, schedule: Q04DX003 (ip), vehicle: saline 95 % of control

COc1cc2c(cc1OC)C(C)P(C)(=O)CC2=O (stereo not drawn)
inactive: [8] 96 % of control and 99 % of control | [9] 102 % of control and 101 % of control | [10] 102 % of control and 99 % of control

COC(=O)c1c(-c2ccc3c(c2)OCO3)c(C=O)n(C)c1C
inactive: [11] 90 % of control | dose: 200.0 mg/kg/injection, schedule: Q04DX002 (ip), vehicle: saline with Tween-80 87 % of control | dose: 400.0 mg/kg/injection, schedule: Q04DX002 (ip), vehicle: saline with Tween-80 89 % of control

Oc1ccc(Cl)cc1C1c2ccccc2Oc2ccccc21
inactive: dose: 50.0 mg/kg/injection, schedule: Q01DX009 (ip), vehicle: Klucel (hydroxypropylcellulose) (HPC) 115 % of control | dose: 100.0 mg/kg/injection, schedule: Q01DX009 (ip), vehicle: Klucel (hydroxypropylcellulose) (HPC) 108 % of control

CNC(=O)OCCC(OC(=O)NC)C1CCC2C3CCC4CC(OC(=O)c5ccccc5)CCC4(C)C3CCC12C (stereo not drawn)
inactive: dose: 60.0 mg/kg/injection, schedule: Q01DX005 (ip), vehicle: Klucel (hydroxypropylcellulose) (HPC) 107 % of control | dose: 120.0 mg/kg/injection, schedule: Q01DX005 (ip), vehicle: Klucel (hydroxypropylcellulose) (HPC) 98 % of control | dose: 240.0 mg/kg/injection, schedule: Q01DX005 (ip), vehicle: Klucel (hydroxypropylcellulose) (HPC) 93 % of control

Nc1nnn(-c2ccccc2)n1
inactive: dose: 100.0 mg/kg/injection, schedule: Q01DX001 (ip), vehicle: Klucel (hydroxypropylcellulose) (HPC) 102 % of control | dose: 200.0 mg/kg/injection, schedule: Q01DX001 (ip), vehicle: Klucel (hydroxypropylcellulose) (HPC) 101 % of control | dose: 400.0 mg/kg/injection, schedule: Q01DX001 (ip), vehicle: Klucel (hydroxypropylcellulose) (HPC) 102 % of control

CCCCCCn1c(=O)cc2n(c1=O)CCC2
inactive: [1] 103 % of control | [2] 101 % of control

C[C@@H]1[C@H](c2ccccc2)OCN1C
inactive: dose: 12.5 mg/kg/injection, schedule: Q01DX005 (ip), vehicle: saline 101 % of control and 93 % of control | dose: 25.0 mg/kg/injection, schedule: Q01DX005 (ip), vehicle: saline 101 % of control | dose: 30.0 mg/kg/injection, schedule: Q01DX005 (ip), vehicle: saline 111 % of control | dose: 50.0 mg/kg/injection, schedule: Q01DX005 (ip), vehicle: saline 109 % of control and 124 % of control | dose: 60.0 mg/kg/injection, schedule: Q01DX005 (ip), vehicle: saline 118 % of control | dose: 100.0 mg/kg/injection, schedule: Q01DX005 (ip), vehicle: saline 111 % of control and 120 % of control | dose: 200.0 mg/kg/injection, schedule: Q01DX005 (ip), vehicle: saline 109 % of control

CCCCCCOCC(=O)OC
inactive: [14] 103 % of control | [12] 102 % of control | [13] 102 % of control

CCC1CN2CCc3cc(OC)c(OC)cc3C2CC1C#N (stereo not drawn)
inactive: [14] 93 % of control

Cc1ccc(C(=O)/C([S-])=C(\Nc2cccc(Cl)c2)[n+]2ccccc2)cc1
inactive: dose: 50.0 mg/kg/injection, schedule: Q01DX005 (ip), vehicle: Klucel (hydroxypropylcellulose) (HPC) 100 % of control | dose: 100.0 mg/kg/injection, schedule: Q01DX005 (ip), vehicle: Klucel (hydroxypropylcellulose) (HPC) 98 % of control | dose: 200.0 mg/kg/injection, schedule: Q01DX005 (ip), vehicle: Klucel (hydroxypropylcellulose) (HPC) 93 % of control

OCC(CO)c1ccccc1
inactive: dose: 37.5 mg/kg/injection, schedule: Q04DX003 (ip), vehicle: saline 97 % of control | dose: 75.0 mg/kg/injection, schedule: Q04DX003 (ip), vehicle: saline 100 % of control | dose: 150.0 mg/kg/injection, schedule: Q04DX003 (ip), vehicle: saline 100 % of control

CCN(CC)c1ccc(C(C#N)(c2ccc(N(CC)Cc3cccc(S(=O)(=O)O)c3)cc2)c2ccc(N(CC)Cc3cccc(S(=O)(=O)O)c3)cc2)cc1
inactive: dose: 72.0 mg/kg/injection, schedule: Q01DX001 (ip), vehicle: saline with Tween-80 98 % of control and 102 % of control | dose: 72.0 mg/kg/injection, schedule: Q01DX005 (ip), vehicle: saline with Tween-80 99 % of control | dose: 120.0 mg/kg/injection, schedule: Q01DX001 (ip), vehicle: saline with Tween-80 104 % of control and 92 % of control | [2] 92 % of control | dose: 200.0 mg/kg/injection, schedule: Q01DX001 (ip), vehicle: saline with Tween-80 90 % of control and 96 % of control | [10] 98 % of control

CCn1c(=S)[nH]c2sc3c(c2c1=O)CCCCC3
inactive: [2] 89 % of control | [3] 101 % of control

C=C1CCCC2(C)C(OC(C)=O)C=C3C(C)(CCC3(O)C(C)C)CC12O (stereo not drawn)
inactive: dose: 0.5 mg/kg/injection, schedule: Q01DX009 (ip), vehicle: saline + alcohol 110 % of control | dose: 1.0 mg/kg/injection, schedule: Q01DX009 (ip), vehicle: saline + alcohol 108 % of control | dose: 2.0 mg/kg/injection, schedule: Q01DX009 (ip), vehicle: saline + alcohol 102 % of control

Brc1ccccc1C(Nc1nncs1)Nc1nncs1
inactive: [1] 117 % of control and 123 % of control
active: [3] 154 % of control and 156 % of control | dose: 480.0 mg/kg/injection, schedule: Q01DX005 (ip), vehicle: saline with Tween-80 169 % of control

COC(=O)c1nnn(-c2ccc(C)c(C)c2)c1C(=O)c1ccccc1
inactive: [1] 99 % of control | [2] 109 % of control

N=C(N)C(Cl)(Cl)Cl
inactive: dose: 12.5 mg/kg/injection, schedule: Q01DX009 (ip), vehicle: saline with Tween-80 108 % of control | dose: 25.0 mg/kg/injection, schedule: Q01DX009 (ip), vehicle: saline with Tween-80 106 % of control | [14] 101 % of control and 106 % of control

COc1ccc(Br)cc1/C=N/N=C/c1cc(Br)ccc1OC
inactive: [4] 90 % of control | [5] 86 % of control | [6] 86 % of control

C=CCSc1ncnc2c1ncn2C1OC(CO)C(O)C1O (stereo not drawn)
inactive: dose: 100.0 mg/kg/injection, schedule: Q04DX003 (ip), vehicle: saline sonified 105 % of control | dose: 200.0 mg/kg/injection, schedule: Q04DX003 (ip), vehicle: saline sonified 115 % of control | dose: 400.0 mg/kg/injection, schedule: Q04DX003 (ip), vehicle: saline sonified 120 % of control

O=C(O)c1c(-c2ccc(Cl)cc2)c(-c2ccc(Cl)cc2)nn(CCO)c1=O
inactive: dose: 25.0 mg/kg/injection, schedule: Q04DX002 (ip), vehicle: distilled water + Tween-80 101 % of control | dose: 50.0 mg/kg/injection, schedule: Q04DX002 (ip), vehicle: distilled water + Tween-80 100 % of control | dose: 100.0 mg/kg/injection, schedule: Q04DX002 (ip), vehicle: distilled water + Tween-80 102 % of control | dose: 200.0 mg/kg/injection, schedule: Q04DX002 (ip), vehicle: distilled water + Tween-80 95 % of control
